Oligonucleotides are given in HELM: sugar(base)linkage, 5' to 3'; d 2'-deoxyribose, r ribose, m 2'-O-methylribose, p phosphate. ss, as = sense and antisense strand
Further: test concentration or dose not given here.

This data set concerns the target CDC34. As to the kind of experiment: reporter assay of Huesken 2005. Particulars: siRNA.
On to “RNA1{r(C)p.r(U)p.r(A)p.r(C)p.r(G)p.r(A)p.r(C)p.r(G)p.r(A)p.r(C)p.r(U)p.r(A)p.r(C)p.r(U)p.r(A)p.r(C)p.r(G)p.r(G)p.r(G)p.d(T)p.d(T)}|RNA2{r(C)p.r(C)p.r(C)p.r(G)p.r(U)p.r(A)p.r(G)p.r(U)p.r(A)p.r(G)p.r(U)p.r(C)p.r(G)p.r(U)p.r(C)p.r(G)p.r(U)p.r(A)p.r(G)p.d(A)p.d(A)}$$$RNA1{StrandType:ss}|RNA2{StrandType:as}$”, for which the normalised inhibition (eCFP-eYFP dual reporter) turned out to be 69%. As for “RNA1{r(G)p.r(C)p.r(G)p.r(C)p.r(C)p.r(U)p.r(C)p.r(A)p.r(A)p.r(G)p.r(U)p.r(U)p.r(C)p.r(C)p.r(C)p.r(C)p.r(A)p.r(U)p.r(C)p.d(T)p.d(T)}|RNA2{r(G)p.r(A)p.r(U)p.r(G)p.r(G)p.r(G)p.r(G)p.r(A)p.r(A)p.r(C)p.r(U)p.r(U)p.r(G)p.r(A)p.r(G)p.r(G)p.r(C)p.r(G)p.r(C)p.d(G)p.d(C)}$$$RNA1{StrandType:ss}|RNA2{StrandType:as}$”, the normalised inhibition (eCFP-eYFP dual reporter) stood at 58%.

Consider “RNA1{r(A)p.r(A)p.r(C)p.r(G)p.r(U)p.r(G)p.r(G)p.r(A)p.r(C)p.r(G)p.r(C)p.r(C)p.r(U)p.r(C)p.r(C)p.r(G)p.r(U)p.r(G)p.r(A)p.d(T)p.d(T)}|RNA2{r(U)p.r(C)p.r(A)p.r(C)p.r(G)p.r(G)p.r(A)p.r(G)p.r(G)p.r(C)p.r(G)p.r(U)p.r(C)p.r(C)p.r(A)p.r(C)p.r(G)p.r(U)p.r(U)p.d(T)p.d(G)}$$$RNA1{StrandType:ss}|RNA2{StrandType:as}$”, for which the normalised inhibition (eCFP-eYFP dual reporter) came to 55.2%. In the case of “RNA1{r(G)p.r(A)p.r(A)p.r(G)p.r(G)p.r(A)p.r(U)p.r(C)p.r(G)p.r(G)p.r(G)p.r(A)p.r(G)p.r(U)p.r(A)p.r(C)p.r(A)p.r(C)p.r(A)p.d(T)p.d(T)}|RNA2{r(U)p.r(G)p.r(U)p.r(G)p.r(U)p.r(A)p.r(C)p.r(U)p.r(C)p.r(C)p.r(C)p.r(G)p.r(A)p.r(U)p.r(C)p.r(C)p.r(U)p.r(U)p.r(C)p.d(C)p.d(C)}$$$RNA1{StrandType:ss}|RNA2{StrandType:as}$”, the normalised inhibition (eCFP-eYFP dual reporter) was found to be 74.3%. Substance “RNA1{r(G)p.r(C)p.r(U)p.r(G)p.r(C)p.r(C)p.r(C)p.r(U)p.r(C)p.r(A)p.r(G)p.r(A)p.r(G)p.r(A)p.r(G)p.r(G)p.r(U)p.r(G)p.r(G)p.d(T)p.d(T)}|RNA2{r(C)p.r(C)p.r(A)p.r(C)p.r(C)p.r(U)p.r(C)p.r(U)p.r(C)p.r(U)p.r(G)p.r(A)p.r(G)p.r(G)p.r(G)p.r(C)p.r(A)p.r(G)p.r(C)p.d(T)p.d(C)}$$$RNA1{StrandType:ss}|RNA2{StrandType:as}$” displayed a normalised inhibition (eCFP-eYFP dual reporter) of 39.3%.

The substance “RNA1{r(G)p.r(A)p.r(C)p.r(C)p.r(A)p.r(U)p.r(U)p.r(C)p.r(U)p.r(C)p.r(C)p.r(U)p.r(G)p.r(A)p.r(G)p.r(U)p.r(G)p.r(U)p.r(G)p.d(T)p.d(T)}|RNA2{r(C)p.r(A)p.r(C)p.r(A)p.r(C)p.r(U)p.r(C)p.r(A)p.r(G)p.r(G)p.r(A)p.r(G)p.r(A)p.r(A)p.r(U)p.r(G)p.r(G)p.r(U)p.r(C)p.d(C)p.d(T)}$$$RNA1{StrandType:ss}|RNA2{StrandType:as}$” returned a normalised inhibition (eCFP-eYFP dual reporter) of 44.9%. “RNA1{r(G)p.r(G)p.r(G)p.r(G)p.r(C)p.r(U)p.r(G)p.r(C)p.r(A)p.r(G)p.r(G)p.r(A)p.r(A)p.r(G)p.r(A)p.r(G)p.r(C)p.r(C)p.r(G)p.d(T)p.d(T)}|RNA2{r(C)p.r(G)p.r(G)p.r(C)p.r(U)p.r(C)p.r(U)p.r(U)p.r(C)p.r(C)p.r(U)p.r(G)p.r(C)p.r(A)p.r(G)p.r(C)p.r(C)p.r(C)p.r(C)p.d(T)p.d(T)}$$$RNA1{StrandType:ss}|RNA2{StrandType:as}$” displayed a normalised inhibition (eCFP-eYFP dual reporter) of 47.6%.

Substance “RNA1{r(A)p.r(C)p.r(C)p.r(C)p.r(C)p.r(A)p.r(C)p.r(G)p.r(C)p.r(A)p.r(G)p.r(A)p.r(A)p.r(C)p.r(G)p.r(U)p.r(C)p.r(A)p.r(G)p.d(T)p.d(T)}|RNA2{r(C)p.r(U)p.r(G)p.r(A)p.r(C)p.r(G)p.r(U)p.r(U)p.r(C)p.r(U)p.r(G)p.r(C)p.r(G)p.r(U)p.r(G)p.r(G)p.r(G)p.r(G)p.r(U)p.d(T)p.d(C)}$$$RNA1{StrandType:ss}|RNA2{StrandType:as}$” gave a normalised inhibition (eCFP-eYFP dual reporter) of 57.8%. “RNA1{r(G)p.r(C)p.r(C)p.r(C)p.r(G)p.r(A)p.r(C)p.r(G)p.r(A)p.r(G)p.r(G)p.r(G)p.r(C)p.r(U)p.r(C)p.r(A)p.r(G)p.r(A)p.r(C)p.d(T)p.d(T)}|RNA2{r(G)p.r(U)p.r(C)p.r(U)p.r(G)p.r(A)p.r(G)p.r(C)p.r(C)p.r(C)p.r(U)p.r(C)p.r(G)p.r(U)p.r(C)p.r(G)p.r(G)p.r(G)p.r(C)p.d(G)p.d(C)}$$$RNA1{StrandType:ss}|RNA2{StrandType:as}$” came in with a normalised inhibition (eCFP-eYFP dual reporter) of 33.6%. In turn, “RNA1{r(C)p.r(U)p.r(C)p.r(A)p.r(G)p.r(A)p.r(C)p.r(C)p.r(U)p.r(C)p.r(U)p.r(U)p.r(C)p.r(U)p.r(A)p.r(C)p.r(G)p.r(A)p.r(C)p.d(T)p.d(T)}|RNA2{r(G)p.r(U)p.r(C)p.r(G)p.r(U)p.r(A)p.r(G)p.r(A)p.r(A)p.r(G)p.r(A)p.r(G)p.r(G)p.r(U)p.r(C)p.r(U)p.r(G)p.r(A)p.r(G)p.d(C)p.d(C)}$$$RNA1{StrandType:ss}|RNA2{StrandType:as}$” yielded a normalised inhibition (eCFP-eYFP dual reporter) of 37.2%. As to “RNA1{r(G)p.r(G)p.r(A)p.r(A)p.r(G)p.r(G)p.r(A)p.r(U)p.r(C)p.r(G)p.r(G)p.r(G)p.r(A)p.r(G)p.r(U)p.r(A)p.r(C)p.r(A)p.r(C)p.d(T)p.d(T)}|RNA2{r(G)p.r(U)p.r(G)p.r(U)p.r(A)p.r(C)p.r(U)p.r(C)p.r(C)p.r(C)p.r(G)p.r(A)p.r(U)p.r(C)p.r(C)p.r(U)p.r(U)p.r(C)p.r(C)p.d(C)p.d(C)}$$$RNA1{StrandType:ss}|RNA2{StrandType:as}$”, the normalised inhibition (eCFP-eYFP dual reporter) is 56.5%. Consider “RNA1{r(C)p.r(G)p.r(U)p.r(C)p.r(A)p.r(G)p.r(G)p.r(A)p.r(C)p.r(C)p.r(A)p.r(U)p.r(U)p.r(C)p.r(U)p.r(C)p.r(C)p.r(U)p.r(G)p.d(T)p.d(T)}|RNA2{r(C)p.r(A)p.r(G)p.r(G)p.r(A)p.r(G)p.r(A)p.r(A)p.r(U)p.r(G)p.r(G)p.r(U)p.r(C)p.r(C)p.r(U)p.r(G)p.r(A)p.r(C)p.r(G)p.d(T)p.d(T)}$$$RNA1{StrandType:ss}|RNA2{StrandType:as}$”, for which the normalised inhibition (eCFP-eYFP dual reporter) turned out to be 72.1%. For “RNA1{r(A)p.r(A)p.r(G)p.r(A)p.r(C)p.r(C)p.r(A)p.r(A)p.r(G)p.r(G)p.r(C)p.r(G)p.r(C)p.r(C)p.r(G)p.r(G)p.r(C)p.r(G)p.r(C)p.d(T)p.d(T)}|RNA2{r(G)p.r(C)p.r(G)p.r(C)p.r(C)p.r(G)p.r(G)p.r(C)p.r(G)p.r(C)p.r(C)p.r(U)p.r(U)p.r(G)p.r(G)p.r(U)p.r(C)p.r(U)p.r(U)p.d(C)p.d(A)}$$$RNA1{StrandType:ss}|RNA2{StrandType:as}$” the value was 25.5%; for “RNA1{r(G)p.r(A)p.r(C)p.r(G)p.r(A)p.r(G)p.r(G)p.r(G)p.r(C)p.r(U)p.r(C)p.r(A)p.r(G)p.r(A)p.r(C)p.r(C)p.r(U)p.r(C)p.r(U)p.d(T)p.d(T)}|RNA2{r(A)p.r(G)p.r(A)p.r(G)p.r(G)p.r(U)p.r(C)p.r(U)p.r(G)p.r(A)p.r(G)p.r(C)p.r(C)p.r(C)p.r(U)p.r(C)p.r(G)p.r(U)p.r(C)p.d(G)p.d(G)}$$$RNA1{StrandType:ss}|RNA2{StrandType:as}$”, 51.7%.

“RNA1{r(G)p.r(A)p.r(C)p.r(U)p.r(A)p.r(C)p.r(C)p.r(C)p.r(A)p.r(U)p.r(A)p.r(C)p.r(U)p.r(C)p.r(U)p.r(C)p.r(C)p.r(A)p.r(C)p.d(T)p.d(T)}|RNA2{r(G)p.r(U)p.r(G)p.r(G)p.r(A)p.r(G)p.r(A)p.r(G)p.r(U)p.r(A)p.r(U)p.r(G)p.r(G)p.r(G)p.r(U)p.r(A)p.r(G)p.r(U)p.r(C)p.d(G)p.d(A)}$$$RNA1{StrandType:ss}|RNA2{StrandType:as}$” had a normalised inhibition (eCFP-eYFP dual reporter) of 65.9%. For “RNA1{r(C)p.r(C)p.r(U)p.r(G)p.r(A)p.r(G)p.r(U)p.r(G)p.r(U)p.r(G)p.r(A)p.r(U)p.r(C)p.r(U)p.r(C)p.r(C)p.r(C)p.r(U)p.r(C)p.d(T)p.d(T)}|RNA2{r(G)p.r(A)p.r(G)p.r(G)p.r(G)p.r(A)p.r(G)p.r(A)p.r(U)p.r(C)p.r(A)p.r(C)p.r(A)p.r(C)p.r(U)p.r(C)p.r(A)p.r(G)p.r(G)p.d(A)p.d(G)}$$$RNA1{StrandType:ss}|RNA2{StrandType:as}$” the value was 58.4%; for “RNA1{r(G)p.r(A)p.r(C)p.r(G)p.r(A)p.r(G)p.r(G)p.r(G)p.r(C)p.r(G)p.r(A)p.r(U)p.r(C)p.r(U)p.r(A)p.r(U)p.r(A)p.r(C)p.r(A)p.d(T)p.d(T)}|RNA2{r(U)p.r(G)p.r(U)p.r(A)p.r(U)p.r(A)p.r(G)p.r(A)p.r(U)p.r(C)p.r(G)p.r(C)p.r(C)p.r(C)p.r(U)p.r(C)p.r(G)p.r(U)p.r(C)p.d(C)p.d(A)}$$$RNA1{StrandType:ss}|RNA2{StrandType:as}$”, 64.3%; for “RNA1{r(C)p.r(A)p.r(C)p.r(U)p.r(G)p.r(G)p.r(U)p.r(G)p.r(G)p.r(A)p.r(C)p.r(G)p.r(A)p.r(G)p.r(G)p.r(G)p.r(C)p.r(G)p.r(A)p.d(T)p.d(T)}|RNA2{r(U)p.r(C)p.r(G)p.r(C)p.r(C)p.r(C)p.r(U)p.r(C)p.r(G)p.r(U)p.r(C)p.r(C)p.r(A)p.r(C)p.r(C)p.r(A)p.r(G)p.r(U)p.r(G)p.d(T)p.d(C)}$$$RNA1{StrandType:ss}|RNA2{StrandType:as}$”, 75.5%. “RNA1{r(A)p.r(G)p.r(C)p.r(A)p.r(A)p.r(G)p.r(G)p.r(G)p.r(G)p.r(A)p.r(A)p.r(G)p.r(G)p.r(A)p.r(U)p.r(C)p.r(G)p.r(G)p.r(G)p.d(T)p.d(T)}|RNA2{r(C)p.r(C)p.r(C)p.r(G)p.r(A)p.r(U)p.r(C)p.r(C)p.r(U)p.r(U)p.r(C)p.r(C)p.r(C)p.r(C)p.r(U)p.r(U)p.r(G)p.r(C)p.r(U)p.d(C)p.d(T)}$$$RNA1{StrandType:ss}|RNA2{StrandType:as}$” gave a normalised inhibition (eCFP-eYFP dual reporter) of 41.2%.

Substance “RNA1{r(C)p.r(A)p.r(C)p.r(C)p.r(C)p.r(G)p.r(C)p.r(C)p.r(G)p.r(G)p.r(U)p.r(G)p.r(G)p.r(A)p.r(C)p.r(G)p.r(A)p.r(C)p.r(C)p.d(T)p.d(T)}|RNA2{r(G)p.r(G)p.r(U)p.r(C)p.r(G)p.r(U)p.r(C)p.r(C)p.r(A)p.r(C)p.r(C)p.r(G)p.r(G)p.r(C)p.r(G)p.r(G)p.r(G)p.r(U)p.r(G)p.d(G)p.d(A)}$$$RNA1{StrandType:ss}|RNA2{StrandType:as}$” yielded a normalised inhibition (eCFP-eYFP dual reporter) of 25.4%.

The values above are taken from the OligoGym collection.
